Reference: US6946447B2, “MDM2-specific antisense oligonucleotides” (Hybridon, Inc., priority 1997, dated 2005)
Where two headings read alike, the source gives them in different places.

Assays:
[1] = tested on: MDM2, p53 and p21 protein levels in LS174T cells; test: Western blot of MDM2, p53 and p21 in LS174T cells; assay type: cell-based, human; settings: up to 500 nM, 24 hr, Lipofectin
LS174T cells = test: LS174T cell growth by trypan blue viability staining; assay type: cell-based, human; settings: 72 hr, Lipofectin
From the text: (§1) Chemicals and Reagents. Cell culture media and phosphate-buffered saline (PBS) were obtained from Sigma Chemical Co. (St. Louis, Mo.). Fetal bovine serum (FBS), antibodies against p53 and p21, Lipofectin, trypsin, penicillin-streptomycin, and trypan blue stain were purchased from GIBCO-BRL (Grand Island, N.Y.). The anti-human-MDM2 monoclonal antibody (Chen L. et al., Proc Natl Acad Sci USA, 95: 195-200, 1998; Chen L. et al., Mol. Med. 5: 21-34, 1999) was kindly provided by J. Chen (Moffitt Cancer Center, Tampa, Fla.). Chemotherapeutic agents adriamycin and 5-fluorouracil (5-FU) were obtained from Sigma. […] The MDM2, p53 and p21 levels in cultured cells were analyzed by using the methods described previously (earlier (Chen L. et al., Proc Natl Acad Sci USA, 95: 195-200, 1998; Chen L. et al., Mol. Med. 5: 21-34, 1999; Wang H. et al., Int J. Oncol. 15: 653-660, 1999). In brief, cell lysate containing identical amounts of total protein were fractionated by SDS-PAGE and transferred to Bio-Rad Trans-Blot nitrocellulose membranes (Bio-Rad Laboratories, Hercules, Calif., USA). The nitrocellulose membrane was then incubated with blocking buffer (PBS containing 0.1% Tween 20 and 5% non-fat milk) for 1 hr at room temperature and washed with the washing buffer (PBS containing 0. […]

DLD-1 cells = test: DLD-1 cell growth by trypan blue viability staining; assay type: cell-based, human; settings: 72 hr, Lipofectin
From the text: as §1

[2] = mice bearing DLD-1 xenografts
[3] = tested on: MDM2, p53 and p21 protein levels in DLD-1 cells; test: Western blot of MDM2, p53 and p21 in DLD-1 cells; assay type: cell-based, human
From the text: (§2) Chemicals and Reagents. Cell culture media and phosphate-buffered saline (PBS) were obtained from Sigma Chemical Co. (St. Louis, Mo.). Fetal bovine serum (FBS), antibodies against p53 and p21, Lipofectin, trypsin, penicillin-streptomycin, and trypan blue stain were purchased from GIBCO-BRL (Grand Island, N.Y.). The anti-human-MDM2 monoclonal antibody (Chen L. et al., Proc Natl Acad Sci USA, 95: 195-200, 1998; Chen L. et al., Mol. Med. 5: 21-34, 1999) was kindly provided by J. Chen (Moffitt Cancer Center, Tampa, Fla.). Chemotherapeutic agents adriamycin and 5-fluorouracil (5-FU) were obtained from Sigma. Natural product topoisomerase I inhibitor 10-hydroxycamptothecin (HCPT) was obtained from the Midwest Co. (Beijing, China) with the purity of the drug being greater than 98% (Zhang R. et al., Cancer Chemother Pharm 41: 257-267, 1998). Cell Culture. The tumor cell lines, LS174T and DLD-1 were obtained from the American Type Culture Collection (Rockville, Md.) and cultured according to their instructions. LS 174T cells were cultured in MEM with 0.1 mM nonessential amino acids and Earle's balanced salt solution containing 10% FBS and DLD-1 cells in RPMI 1640 medium containing 10% FBS. All media included 1% penicillin/streptomycin. […] Cells were incubated with Oligos AS or ASM at various concentrations for 72 hr, in the presence of Lipofectin (7 μg/ml). […] Western Blot Analysis. The MDM2, p53 and p21 levels in cultured cells were analyzed by using the methods described previously (earlier (Chen L. et al., Proc Natl Acad Sci USA, 95: 195-200, 1998; Chen L. et al., Mol. Med. 5: 21-34, 1999; Wang H. et al., Int J. Oncol. 15: 653-660, 1999). In brief, cell lysate containing identical amounts of total protein were fractionated by SDS-PAGE and transferred to Bio-Rad Trans-Blot nitrocellulose membranes (Bio-Rad Laboratories, Hercules, Calif., USA). The nitrocellulose membrane was then incubated with blocking buffer (PBS containing 0.1% Tween 20 and 5% non-fat milk) for 1 hr at room temperature and washed with the washing buffer (PBS containing 0. 1% Tween 20) for 5 min twice. The membrane was incubated with primary (anti-MDM2, anti-p53, or anti-p21) antibody overnight at 4° C. or for 1 hr at room temperature with gentle shaking. The membrane was washed with the washing buffer for 15 min and then twice for 5 min, and then incubated with 1:5000 diluted goat anti-mouse IgG-horse radish peroxidase conjugated antibody (Bio-Rad, Hercules, Calif.) for 1 hr at room temperature. After washing as described above the protein of interest was detected by ECL reagents from Amersham (Arlington Height, Ill.). Results. LS174T Model. In vitro inhibition of MDM2 expression by Oligo AS was shown in a sequence-specific, increasing dose-dependent manner (FIG. 19). […] Control oligonucleotide, Oligo ASM had no effect on MDM2, p53 or p21 protein levels at 500 nM, the highest concentration tested in the study.
(§3) Following in vitro combination treatment of Oligos and chemotherapeutic agents HCPT, adriamycin, and 5-FU, the protein levels of MDM2, p53 and p21 were determined in DLD-1 cells. Cells were incubated with 200 nM Oligo in the presence of Lipofectin for 24 hr, followed by addition of various concentrations of chemotherapeutic agents and incubation for an additional 24 hr.

[4] = tested on: human colon cancer DLD-1 xenografts; test: Tumor growth in nude mice bearing DLD-1 xenografts; assay type: in vivo
[5] = tested on: human colon cancer LS174T xenografts; test: Tumor growth in nude mice bearing LS174T xenografts
[6] = tested on: MDM2, p53 and p21 protein levels in LS174T cells; test: Western blot of MDM2, p53 and p21 in LS174T cells; assay type: cell-based, human; settings: 400 nM Oligo 24 hr
From the text: as §2
as §3, with “LS174T” for “DLD-1”, “400” for “200”, “for” for “for an”

[7] = mice bearing LS174T xenografts
MDM2 [8] = settings: JAR and SJSA cells, 100-400 nM, Lipofectin; cited from earlier work
MDM2 [9] = test: MDM2 protein level by immunoprecipitation/Western blot in oligonucleotide-treated cells; assay type: cell-based, human; settings: JAR cells, 18 h, Lipofectin 7 μg/ml, Western blot (FIG. 2A)
JAR cells = test: Induction of apoptosis / cell death in JAR cells; assay type: cell-based, human; settings: 400 nM, 30 h, Lipofectin
Protocol: JAR cells (ATCC) were grown in DMEM medium supplemented with 1% FBS according to standard cell culture techniques. Cells were then treated for 30 hours with growth medium containing 400 nM of either antisense oligonucleotide AS5 (SEQ ID NO:28) complementary to a portion of MDM2-encoding RNA or control oligonucleotide M4 (SEQ ID NO:5), and 7 μg/ml lipofectin (Gibco BRL Paisley, UK). Treated cells were then photographed using a phase contrast microscope.
JAR cells were treated for 24 hours as described in Example 6. Floating cells were harvested and chromosomal DNA was extracted according to standard techniques (Liu et al., Cell 86:147-157 (1996)). Purified DNA was then analyzed by agarose gel electrophoresis on a 2% agarose gel. Following electrophoresis the gel was stained with 0.5 μg/ml ethidium bromide.

[10] = day 3, oligo 20, HCPT 3, 5-FU 10 mg/kg/day
[11] = day 6, oligo 20, HCPT 3, 5-FU 10 mg/kg/day
[12] = day 9, oligo 20, HCPT 3, 5-FU 10 mg/kg/day
[13] = day 12, oligo 20, HCPT 3, 5-FU 10 mg/kg/day
[14] = day 15, oligo 20, HCPT 3, 5-FU 10 mg/kg/day

Substance: Oligo ASM: mismatched control of Oligo AS, 5′-UGTCACCCTTTTTCATUCAC-3′; SEQ ID NO:50 (chemistry not given here)
- effect on MDM2, p53 and p21 protein levels [1]: no effect
- effect on tumor cell growth (LS174T cells): no significant effect
- effect on tumor cell growth (DLD-1 cells): no significant effect
- Survival Rates of Animals ([2]; day 3): 100%
- Survival Rates of Animals ([2]; day 6): 100%
- Survival Rates of Animals ([2]; day 9): 100%
- Survival Rates of Animals ([2]; day 12): 100%
- Survival Rates of Animals ([2]; day 15): 100%
- Survival Rates of Animals ([2]; day 18): 100%
- Survival Rates of Animals ([2]; day 21): 66.7%
- effect on MDM2, p53 or p21 protein levels [3]: no effect
- MDM2, p53 and p21 protein levels, oligo pre-treatment then 5-FU ([3]; 200 nM Oligo 24 hr, then 5-FU 24 hr): minimal effect
- MDM2 and p21 protein levels, oligo pre-treatment then HCPT ([3]; 200 nM Oligo 24 hr, then HCPT 24 hr): minimal effect
- MDM2 and p21 protein levels, oligo pre-treatment then adriamycin ([3]; 200 nM Oligo 24 hr, then adriamycin 24 hr): minimal effect
- effect of combination treatment on tumor growth [4]: no significant effect
- effect on in vivo tumor growth ([4]; 20 mg/kg/day): minimal effect
- Ratio (%) of % T:C with oligo to % T:C without oligo ([2]/[1] or [3]/[1]) ([4]; day 3): 82%
- Growth ratio % T:C [4, 10]: 81.5%
- Ratio (%) of % T:C with oligo to % T:C without oligo ([2]/[1] or [3]/[1]) ([4]; day 6): 88%
- Growth ratio % T:C [4, 11]: 87.5%
- Ratio (%) of % T:C with oligo to % T:C without oligo ([2]/[1] or [3]/[1]) ([4]; day 9): 70%
- Growth ratio % T:C [4, 12]: 79.3%
- Ratio (%) of % T:C with oligo to % T:C without oligo ([2]/[1] or [3]/[1]) ([4]; day 12): 66%
- Growth ratio % T:C [4, 13]: 66.4%
- Ratio (%) of % T:C with oligo to % T:C without oligo ([2]/[1] or [3]/[1]) ([4]; day 15): 79%
- Growth ratio % T:C [4, 14]: 79.3%
- Ratio (%) of % T:C with oligo to % T:C without oligo ([2]/[1] or [3]/[1]) ([4]; day 18): 81%
- Growth ratio % T:C ([4]; day 18, oligo 20, HCPT 3, 5-FU 10 mg/kg/day): 81.0%
- Ratio (%) of % T:C with oligo to % T:C without oligo ([2]/[1] or [3]/[1]) ([4]; day 21): 76%
- Growth ratio % T:C ([4]; day 21 (end of experiment), oligo 20, HCPT 3, 5-FU 10 mg/kg/day): 76.0%
- effect of combination treatment on tumor growth [5]: no significant effect
- xenograft pathology (tumor histology) [5]: indistinguishable histologically
- effect on in vivo tumor growth ([5]; daily ip dose 20 mg/kg): minimal effect
- Ratio (%) of % T:C with oligo to % T:C without oligo ([2]/[1] or [3]/[1]) ([5]; day 3): 99%
- Growth ratio % T:C (mean tumor mass of treated group vs saline control) [5, 10]: 98.6%
- Ratio (%) of % T:C with oligo to % T:C without oligo ([2]/[1] or [3]/[1]) ([5]; day 6): 105%
- Growth ratio % T:C (mean tumor mass of treated group vs saline control) [5, 11]: 104.9%
- Ratio (%) of % T:C with oligo to % T:C without oligo ([2]/[1] or [3]/[1]) ([5]; day 9): 70%
- Growth ratio % T:C (mean tumor mass of treated group vs saline control) [5, 12]: 69.7%
- Ratio (%) of % T:C with oligo to % T:C without oligo ([2]/[1] or [3]/[1]) ([5]; day 12): 82%
- Growth ratio % T:C (mean tumor mass of treated group vs saline control) [5, 13]: 81.5%
- Ratio (%) of % T:C with oligo to % T:C without oligo ([2]/[1] or [3]/[1]) ([5]; day 15): 79%
- Growth ratio % T:C (mean tumor mass of treated group vs saline control) [5, 14]: 79.4%
- Ratio (%) of % T:C with oligo to % T:C without oligo ([2]/[1] or [3]/[1]) ([5]; day 18): 72%
- Growth ratio % T:C (mean tumor mass of treated group vs saline control) ([5]; day 18 (end of experiment), oligo 20, HCPT 3, 5-FU 10 mg/kg/day): 73.3%
- Ratio (%) of % T:C with oligo to % T:C without oligo ([2]/[1] or [3]/[1]) ([5]; day 18, listed as ASM): 73%
- MDM2, p53 and p21 protein levels, oligo pre-treatment then 5-FU ([6]; then 5-FU 24 hr): minimal effect
- MDM2, p53 and p21 protein levels, oligo pre-treatment then HCPT ([6]; then HCPT 24 hr): minimal effect
- MDM2, p53 and p21 protein levels, oligo pre-treatment then adriamycin ([6]; then adriamycin 24 hr): minimal effect
- Survival Rates of Animals ([7]; day 3): 100%
- Survival Rates of Animals ([7]; day 6): 100%
- Survival Rates of Animals ([7]; day 9): 100%
- Survival Rates of Animals ([7]; day 12): 100%
- Survival Rates of Animals ([7]; day 15): 100%
- Survival Rates of Animals ([7]; day 18): 100%

Substance: M4: mismatch control oligonucleotide of AS5 with four mismatches, 5′-GATGACTCACACCATCATGG-3′; SEQ ID NO:5 (listed as DNA, chemistry not given here) [Oligo M4]
- decrease of MDM2 protein levels (MDM2 [8]): no effect
- inhibition of MDM2 expression (MDM2 [9]): not observed
- cell death / apoptosis morphology (JAR cells): significantly less apoptosis
